# Paper PMC12040169 (PLOS Biology, 2025)
# Assay: in vitro
# Settings: human, hela cells, % viability
row,Compound,"viability at 28.5 h, 10 µM"
1,O=C(N[C@H]1CO[C@H]2[C@@H]1OC[C@@H]2n1cc(-c2ccccc2)nn1)N1CCOCC1 [CBK289503],87.7%
2,O=C(NC1CCCCC1)N[C@H]1CO[C@H]2[C@@H]1OC[C@@H]2n1cc(-c2ccccc2)nn1 [CBK289505],84.6%
3,COc1ccc(NC(=O)N[C@H]2CO[C@H]3[C@@H]2OC[C@@H]3n2cc(-c3ccccc3)nn2)cc1 [CBK289506],106%
4,O=C(N[C@H]1CO[C@H]2[C@@H]1OC[C@@H]2n1cc(-c2ccccn2)nn1)c1ccc(C(F)(F)F)cc1 [CBK289507],89.7%
5,O=C(N[C@H]1CO[C@H]2[C@@H]1OC[C@@H]2n1cc(CC2CCCCC2)nn1)C1CC1 [CBK289509],92.2%
6,COc1cccc(-c2nnnn2[C@H]2CO[C@H]3[C@@H]2OC[C@@H]3NC(=O)c2ccc(C)cc2)c1 [CBK289512],94.1%
7,O=C(N[C@H]1CO[C@H]2[C@@H]1OC[C@@H]2Nc1nccc(-c2cccs2)n1)c1ccccc1 [CBK289516],84.5%
8,O=C(N[C@H]1CO[C@H]2[C@@H]1OC[C@@H]2Nc1nccc(-c2cccs2)n1)C1CC1 [CBK289517],95%
9,O=C(N[C@H]1CO[C@H]2[C@@H]1OC[C@@H]2Nc1nccc(-c2cccs2)n1)c1cccs1 [CBK289518],106%
10,CC(C)(C)c1ccnc(N[C@H]2CO[C@H]3[C@@H]2OC[C@@H]3NC(=O)c2cccs2)n1 [CBK289520],94.8%
11,CC(C)(C)c1ccnc(N[C@H]2CO[C@H]3[C@@H]2OC[C@@H]3NS(=O)(=O)Cc2ccccc2)n1 [CBK289521],91.4%
12,CC(C)(C)c1ccnc(N[C@H]2CO[C@H]3[C@@H]2OC[C@@H]3NC(=O)NCc2ccccc2)n1 [CBK289522],87.3%
13,CS(=O)(=O)N[C@H]1CO[C@H]2[C@@H]1OC[C@@H]2Nc1nccc(-c2ccco2)n1 [CBK289525],96.4%
14,COc1ccc(-c2ccnc(N[C@H]3CO[C@H]4[C@@H]3OC[C@@H]4NC(=O)c3ccccc3)n2)cc1 [CBK289526],83.5%
15,COc1ccc(-c2ccnc(N[C@H]3CO[C@H]4[C@@H]3OC[C@@H]4NC(=O)C3CCCCC3)n2)cc1 [CBK289527],88.9%
16,CO[C@@H]1CO[C@H]2[C@@H]1OC[C@@H]2Nc1nccc(-c2cccc(C#N)c2)n1 [CBK289532],79.8%
17,CC(=O)N[C@H]1CO[C@H]2[C@@H]1OC[C@@H]2Nc1nccc(-c2cccc(F)c2)n1 [CBK289534],99.3%
18,O=C(N[C@H]1CO[C@H]2[C@@H]1OC[C@@H]2Nc1nccc(-c2cccc(F)c2)n1)C1CC1 [CBK289535],99.2%
19,CCNC(=O)N[C@H]1CO[C@H]2[C@@H]1OC[C@@H]2Nc1nccc(-c2cccc(F)c2)n1 [CBK289536],91.1%
20,O=C(N[C@H]1CCN2C(=O)[C@H]3CCCN3C(=O)[C@@H]2C1)c1cccs1 [CBK289538],106%
21,CC(C)NC(=O)N[C@H]1CCN2C(=O)N(c3cccc4nsnc34)C(=O)[C@@H]2C1 [CBK289539],111%
22,CC(C)c1ccc(N2C(=O)[C@@H]3C[C@@H](NC(=O)c4cccs4)CCN3C2=O)cc1 [CBK289541],93.1%
23,CC(C)c1ccc(N2C(=O)[C@@H]3C[C@@H](NC(=O)c4ccnc(Cl)c4)CCN3C2=O)cc1 [CBK289544],102%
24,CC(C)c1ccc(N2C(=O)[C@@H]3C[C@@H](NC(=O)c4cccn4C)CCN3C2=O)cc1 [CBK289547],92.3%

row,Compound,"viability at 28.5 h, 10 µM"
1,Cn1cccc1C(=O)N[C@H]1CCN2C(=O)N(c3ccc(OC(F)(F)F)cc3)C(=O)[C@@H]2C1 [CBK289548],94.7%
2,Cn1cccc1C(=O)N[C@H]1CCN2C(=O)N(c3cccc(F)c3)C(=O)[C@@H]2C1 [CBK289549],88.8%
3,O=C(N[C@H]1CCN2C(=O)N(c3cccc(C(F)(F)F)c3)C(=O)[C@@H]2C1)c1ccncc1 [CBK289552],98.7%
4,C=CCO[C@@H]1C[C@H]2C(=O)N3CC[C@H](NC(=O)[C@@H](O)c4ccccc4)C[C@H]3C(=O)N2C1 [CBK289556],89.6%
5,O=C(N[C@H]1CCN2C(=O)c3cc(-c4ccccc4F)ccc3NC(=O)[C@@H]2C1)c1cnccn1 [CBK289558],118%
6,O=C(N[C@H]1CCN2C(=O)c3cc(-c4cccs4)ccc3NC(=O)[C@@H]2C1)c1cnccn1 [CBK289559],106%
7,COCC(=O)N[C@H]1CCN2C(=O)c3cc(-c4ccc(F)cc4F)ccc3NC(=O)[C@@H]2C1 [CBK289561],78.6%
8,COc1ccc(C(=O)N[C@H]2CCN3C(=O)c4ccc(Cl)cc4NC(=O)[C@@H]3C2)cc1 [CBK289564],84.5%
9,CS(=O)(=O)N[C@H]1CCN2C(=O)c3cc(-c4ccc(Cl)cc4)ccc3NC(=O)[C@@H]2C1 [CBK289565],95.3%
10,Cc1cccc(-c2ccc3c(c2)C(=O)N2CC[C@H](NC(=O)NC(C)C)C[C@H]2C(=O)N3)c1C [CBK289567],97.9%
11,CC(C)NC(=O)C[C@@H]1c2nc(-c3ccccc3)sc2C[C@@H]2[C@](C)(CO)[C@H](O)CC[C@]21C [CBK289570],90.6%
12,Cc1nc2c(s1)C[C@@H]1[C@](C)(CO)[C@H](O)CC[C@@]1(C)[C@@H]2CC(=O)O [CBK289571],93.3%
13,COc1ccc(CNC(=O)C[C@@H]2[C@H](O)CCC3[C@]4(C)CO[C@@H](CN)O[C@@H]4CC[C@]32C)cc1 (stereo partly drawn) [CBK289575],109%
14,COc1cccc(NC(=O)O[C@@H]2CC[C@]3(C)C(CC[C@H]4OC(=O)C[C@H]43)[C@]2(C)CO)c1 (stereo partly drawn) [CBK289576],95.2%
15,COC(=O)[C@@H]1CN(C(=O)c2ccc(OC)cc2)CCN1C(C)=O [CBK289578],97.5%
16,O=C(O)CCCC(=O)N1CCN2C(=O)c3cc(Br)ccc3NC(=O)[C@@H]2C1 [CBK289581],100%
17,COCC(=O)N1CCN2C(=O)c3ccccc3NC(=O)[C@@H]2C1 [CBK289582],90.6%
18,COc1ccc(-c2ccc3c(c2)C(=O)N2CCN(C(=O)CC(C)(C)C)C[C@@H]2C(=O)N3)cc1 [CBK289584],94.6%
19,COCC(=O)N1CCN2C(=O)c3cc(-c4ccccc4F)ccc3NC(=O)[C@H]2C1 [CBK289587],82.4%
20,O=C1Nc2ccc(-c3ccccc3F)cc2C(=O)N2CCN(C(=O)C3CCNCC3)C[C@H]12 [CBK289592],87.3%
21,O=C1Nc2ccc(-c3ccc4c(c3)OCO4)cc2C(=O)N2CCN(C(=O)CO)C[C@H]12 [CBK289593],85.6%
22,O=C1Nc2ccc(-c3ccc(Cl)cc3)cc2C(=O)N2CCN(C(=O)CO)C[C@H]12 [CBK289594],96.1%
23,CCCNC(=O)N1CCN2C(=O)c3cc(-c4ccccc4F)ccc3NC(=O)[C@@H]2C1 [CBK289595],95.5%
24,CC(=O)N1CCN2C(=O)c3cc(-c4ccc5c(c4)OCO5)ccc3NC(=O)[C@H]2C1 [CBK289597],90.1%

row,Compound,"viability at 28.5 h, 10 µM"
1,O=C1N[C@@H](CC2CCCCC2)C(=O)N2CCN(C(=O)c3cccc(F)c3)C[C@H]12 [CBK289599],115%
2,O=C1N[C@@H](Cc2ccc(F)cc2)C(=O)N2CCN(C(=O)c3cccc(F)c3)C[C@H]12 [CBK289600],111%
3,N#Cc1ccc(C(=O)N2CCN3C(=O)[C@H](Cc4ccc(F)cc4)NC(=O)[C@H]3C2)cc1 [CBK289602],106%
4,COc1ccc(C[C@@H]2NC(=O)[C@H]3CN(C(=O)c4cccc(F)c4)CCN3C2=O)cc1 [CBK289604],88.8%
5,COC(=O)[C@@H]1CN(C(=O)C2CCCC2)CCN1C(=O)c1cccs1 [CBK289609],93.5%
6,COC(=O)[C@@H]1CN(C(=O)c2cccs2)CCN1C(=O)c1cccnc1 [CBK289610],87%
7,COC(=O)[C@@H]1CN(C(=O)Nc2ccccc2)CCN1S(C)(=O)=O [CBK289611],96.9%
8,COc1ccc(C[C@@H]2NC(=O)[C@H]3CN(C(=O)Nc4cccc(OC)c4)CCN3C2=O)cc1 [CBK289617],98.9%
9,COc1cccc(NC(=O)N2CCN3C(=O)[C@H](Cc4ccc(O)cc4)NC(=O)[C@@H]3C2)c1 [CBK289618],99%
10,C=CCO[C@@H]1C[C@H]2C(=O)N3CCN(C(=O)NC4CCCCC4)C[C@H]3C(=O)N2C1 [CBK289619],82.5%
11,COC(=O)[C@@H](C)NC(=O)[C@@H]1CN(C(=O)NC(C)C)CCN1C(=O)C1CCCCC1 [CBK289622],90.7%
12,COC(=O)[C@@H](C)NC(=O)[C@@H]1CN(C(=O)NC(C)C)CCN1C(=O)c1cccs1 [CBK289624],110%
13,COC(=O)[C@@H](C)NC(=O)[C@@H]1CN(C(=O)c2cccc(F)c2)CCN1S(C)(=O)=O [CBK289625],96.8%
14,COC(=O)[C@@H](C)NC(=O)[C@H]1CN(S(=O)(=O)c2ccccc2)CCN1C(C)=O [CBK289626],88.2%
15,COC(=O)[C@@H](C)NC(=O)[C@H]1CN(C(=O)Nc2ccccc2)CCN1C(C)=O [CBK289627],86.3%
16,COC(=O)[C@@H](C)NC(=O)[C@H]1CN(C(=O)c2cccnc2)CCN1C(=O)c1cccs1 [CBK289628],82.4%
17,COC(=O)[C@@H](C)NC(=O)[C@H]1CN(C(=O)Nc2ccccc2)CCN1C(=O)c1cccs1 [CBK289629],97.2%
18,COC(=O)[C@@H](C)NC(=O)[C@H]1CN(C(=O)c2cccnc2)CCN1C(=O)NC(C)C [CBK289630],104%
19,COC(=O)[C@@H](C)NC(=O)[C@H]1CN(C(=O)Nc2ccccc2)CCN1C(=O)NC(C)C [CBK289631],113%
20,C[C@@H](c1ccccc1)N1C(=O)[C@@H]2CN(C(=O)CC3(CC(=O)O)CCCC3)CCN2C1=O [CBK289637],88.7%
21,C[C@H](c1ccccc1)N1C(=O)[C@@H]2CN(C(=O)CC(C)(C)CC(=O)O)CCN2C1=O [CBK289639],114%
22,O=C1[C@H]2CN(S(=O)(=O)c3ccc(F)cc3)CCN2C(=O)N1CCO [CBK289640],84.5%
23,COCC(=O)N1CCN2C(=O)N(Cc3ccccc3)C(=O)[C@H]2C1 [CBK289641],91.4%
24,c1ccc(-c2cc(CC3(NCC4CCCCC4)COC3)no2)nc1 [CBK289644],93%
